Data: ChEMBL document CHEMBL3217621, “Diaryl ether derivatives as anticancer agents a review” (Medchemcomm, 2012)
Blank lines part the entries; values can stand above or below the compound they belong to.

How the values were obtained:
[1] = Cytotoxicity against human MOLT3 cells; format: functional, cell-based; settings: MOLT-3
[2] = system: HL-60; test: Cytotoxicity against human HL60 cells; format: functional, cell-based
[3] = Inhibition of GGPTase-1 (unknown origin); parameters: species or system Homo sapiens
[4] = target: T1, Interstitial collagenase (Homo sapiens, UniProt P03956); test: Inhibition of MMP-1 (unknown origin)
T1 sequence (P03956 whole entry): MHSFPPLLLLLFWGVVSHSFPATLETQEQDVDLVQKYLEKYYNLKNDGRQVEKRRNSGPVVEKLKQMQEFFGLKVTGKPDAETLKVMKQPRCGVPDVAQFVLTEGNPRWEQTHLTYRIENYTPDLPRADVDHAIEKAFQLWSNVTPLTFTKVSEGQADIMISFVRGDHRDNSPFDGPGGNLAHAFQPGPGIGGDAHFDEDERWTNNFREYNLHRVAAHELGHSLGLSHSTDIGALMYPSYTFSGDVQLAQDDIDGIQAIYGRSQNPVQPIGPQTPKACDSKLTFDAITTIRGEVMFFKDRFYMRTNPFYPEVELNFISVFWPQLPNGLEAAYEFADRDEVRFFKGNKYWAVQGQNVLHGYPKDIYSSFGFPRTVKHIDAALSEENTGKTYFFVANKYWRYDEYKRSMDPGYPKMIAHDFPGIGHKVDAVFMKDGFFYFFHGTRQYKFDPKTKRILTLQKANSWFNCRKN

[5] = Selectivity index, ratio of IC50 for human KB3-1 cells to IC50 for bFGF-treated HUVEC; parameters: species or system KB 3-1
[6] = system: HUVEC; test: Antiproliferative activity against bFGF-treated HUVEC; format: functional, cell-based; settings: Homo sapiens
[7] = system: P388; test: Cytotoxicity against mouse P388 cells assessed as growth inhibition after 5 days by MTT assay; format: functional, cell-based; settings: P388, 120 h
[8] = target: Matrix metalloproteinase-9 (Homo sapiens, UniProt P14780); test: Inhibition of MMP-9 (unknown origin)
Sequence of Matrix metalloproteinase-9 (P14780 whole entry): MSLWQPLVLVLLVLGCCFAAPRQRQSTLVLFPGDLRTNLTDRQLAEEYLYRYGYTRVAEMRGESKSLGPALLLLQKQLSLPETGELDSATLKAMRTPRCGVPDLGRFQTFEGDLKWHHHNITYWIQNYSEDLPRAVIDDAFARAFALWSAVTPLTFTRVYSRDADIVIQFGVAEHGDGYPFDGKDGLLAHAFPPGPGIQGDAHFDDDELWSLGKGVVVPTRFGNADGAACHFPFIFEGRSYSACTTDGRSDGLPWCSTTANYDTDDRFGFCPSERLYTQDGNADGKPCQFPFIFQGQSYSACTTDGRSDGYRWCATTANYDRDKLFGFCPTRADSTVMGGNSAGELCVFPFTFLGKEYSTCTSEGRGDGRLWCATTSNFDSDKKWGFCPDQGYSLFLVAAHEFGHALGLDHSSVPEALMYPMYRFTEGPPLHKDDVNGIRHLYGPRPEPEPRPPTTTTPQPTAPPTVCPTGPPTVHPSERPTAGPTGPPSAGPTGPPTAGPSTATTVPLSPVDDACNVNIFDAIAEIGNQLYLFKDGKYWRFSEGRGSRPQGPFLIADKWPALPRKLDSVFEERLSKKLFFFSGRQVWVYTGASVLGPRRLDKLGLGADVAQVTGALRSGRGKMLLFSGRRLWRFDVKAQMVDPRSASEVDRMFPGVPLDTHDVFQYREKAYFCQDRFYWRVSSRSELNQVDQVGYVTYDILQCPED

[9] = target: 72 kDa type IV collagenase (Homo sapiens, UniProt P08253); test: Inhibition of MMP-2 (unknown origin)
Sequence of 72 kDa type IV collagenase (P08253 whole entry): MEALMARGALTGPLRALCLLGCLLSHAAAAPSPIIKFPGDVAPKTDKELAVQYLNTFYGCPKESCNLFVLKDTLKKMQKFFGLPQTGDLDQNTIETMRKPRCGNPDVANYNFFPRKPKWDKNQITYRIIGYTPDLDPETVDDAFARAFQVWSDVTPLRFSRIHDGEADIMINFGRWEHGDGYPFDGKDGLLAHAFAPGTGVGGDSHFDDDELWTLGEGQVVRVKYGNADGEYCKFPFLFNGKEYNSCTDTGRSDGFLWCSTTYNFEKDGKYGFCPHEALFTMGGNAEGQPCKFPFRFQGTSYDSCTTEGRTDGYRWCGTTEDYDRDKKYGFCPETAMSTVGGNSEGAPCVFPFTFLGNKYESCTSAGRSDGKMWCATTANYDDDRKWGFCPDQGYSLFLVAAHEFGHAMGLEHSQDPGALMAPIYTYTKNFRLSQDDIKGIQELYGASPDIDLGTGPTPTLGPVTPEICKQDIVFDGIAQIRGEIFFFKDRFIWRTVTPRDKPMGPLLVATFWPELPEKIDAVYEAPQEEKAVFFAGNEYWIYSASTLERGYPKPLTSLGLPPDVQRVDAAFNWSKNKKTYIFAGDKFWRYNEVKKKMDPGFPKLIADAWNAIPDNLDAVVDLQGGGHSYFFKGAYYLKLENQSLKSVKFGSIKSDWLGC

[10] = AUC in cynomolgus monkey at 3 mg/kg, po; format: ADME, organism-based, Macaca fascicularis; parameters: dose 3 mg/kg, route oral; settings: plasma
[11] = Cytotoxicity against human RPE1 cells assessed as cell viability after 24 to 72 hrs by MTT assay; format: cell-based, TERT-RPE1; settings: RPE-1
[12] = system: PC-3; test: Cytotoxicity against human PC3 cells assessed as growth inhibition after 48 hrs by MTT assay; format: functional, cell-based; settings: PC-3, 48 h
[13] = system: PC-3; test: Induction of apoptosis in human PC3 cells at 10 uM after 24 hrs by propidium iodide/Hochest33342 staining-based flow cytometry (reference value: 0.05%); format: functional
[14] = target: T2, Aromatase (Homo sapiens, UniProt P11511); test: Inhibition of aromatase (unknown origin)
T2 sequence (P11511 whole entry): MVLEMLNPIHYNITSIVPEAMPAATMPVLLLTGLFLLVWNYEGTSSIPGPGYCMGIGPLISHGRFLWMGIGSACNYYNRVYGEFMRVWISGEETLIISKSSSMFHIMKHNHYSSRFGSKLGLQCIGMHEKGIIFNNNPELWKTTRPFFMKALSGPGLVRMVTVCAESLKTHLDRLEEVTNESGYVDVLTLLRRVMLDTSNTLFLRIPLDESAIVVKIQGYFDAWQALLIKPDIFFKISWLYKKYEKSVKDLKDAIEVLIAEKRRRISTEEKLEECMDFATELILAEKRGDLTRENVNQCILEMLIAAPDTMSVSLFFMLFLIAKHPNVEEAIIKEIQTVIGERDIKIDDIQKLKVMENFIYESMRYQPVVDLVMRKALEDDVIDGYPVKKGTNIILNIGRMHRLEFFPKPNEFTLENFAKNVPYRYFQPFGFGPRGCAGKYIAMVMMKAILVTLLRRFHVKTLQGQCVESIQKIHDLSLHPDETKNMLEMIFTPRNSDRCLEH

[15] = Half life in cynomolgus monkey at 3 mg/kg, iv; format: ADME, organism-based, Macaca fascicularis; parameters: dose 3 mg/kg, route intravenous; settings: in vivo

Compound: COc1cc([C@@H]2c3cc4c(cc3[C@@H](O[C@@H]3O[C@@H]5CO[C@@H](C)O[C@H]5[C@H](O)[C@H]3O)[C@H]3COC(=O)[C@H]23)OCO4)cc(OC)c1O [ETOPOSIDE]
IC50 [1]: 20 nM
IC50 [2]: 610 nM

IC50 [3]: 10 nM
Compound: CCC1(c2cccc(Oc3cc(Cc4cncn4C)ccc3C#N)c2)CCCCN(C)C1=O (racemic)

IC50 [4]: > 50000 nM
Compound: O=CN(O)C(CS(=O)(=O)c1ccc(Oc2ccc(OC(F)(F)F)cc2)cc1)C1CCC2(CC1)OCCO2 (stereo unspecified)

IC50 [3]: 7.1 nM
Compound: CCC1(c2cccc(Oc3cc(Cn4ccnc4)ccc3C#N)c2)CCCCN(C)C1=O (racemic)

Compound: O=C1N/C=C/c2ccc(c(Br)c2)Oc2cc(cc(Br)c2O)CCNC(=O)/C(=N/O)Cc2ccc(c(Br)c2)Oc2cc(cc(Br)c2O)C/C1=N\O [BASTADIN 7]
Ratio IC50 [5]: 56
IC50 [6]: 54 nM

Compound: COc1ccc(/C=C\c2cc(OC)c(OC)c(OC)c2)cc1O [COMBRETASTATIN A4]
IC50 [7]: 2.6 nM

Compound: O=C1N/C=C/c2ccc(c(Br)c2)Oc2cc(cc(Br)c2O)CCNC(=O)/C(=N/O)Cc2cc(Br)c(c(Br)c2)Oc2cc(cc(Br)c2O)C/C1=N\O [BASTADIN 4]
Ratio IC50 [5]: 38
IC50 [6]: 53 nM

IC50 [4]: > 50000 nM
IC50 [8]: 0.32 nM
IC50 [9]: 0.61 nM
AUC [10]: 26 µM·h
Compound: O=CN(O)C(CS(=O)(=O)c1ccc(Oc2ccc(OC(F)(F)F)cc2)cc1)[C@H]1CCCO1 (stereo partly specified)

Compound: COc1cc(C)cc(Oc2c(C)cc(OC)cc2OC)c1
IC50 [1]: 1400 nM
IC50 [2]: 2200 nM

IC50 [3]: 3700 nM
Compound: N#Cc1ccc(Cn2ccnc2)cc1Oc1ccccc1

IC50 [3]: 280 nM
Compound: N#Cc1ccc(Cn2ccnc2)cc1Oc1ccc(Cl)cc1Cl

IC50 [3]: 3.6 nM
Compound: CC[C@@]1(c2cccc(Oc3cc([C@](C)(N)c4cncn4C)ccc3C#N)c2)CCCCN(C)C1=O

Compound: Oc1ccc2c(c1)CCc1ccc(cc1)Oc1cc(ccc1O)CCc1ccc-2c(O)c1 [RICCARDI C]
IC50 [11]: 50000 nM
IC50 [12]: 3220 nM
Activity [13]: 6.21%

IC50 [3]: 5.8 nM
Compound: CC[C@@]1(c2cccc(Oc3cc(Cn4ccnc4)ccc3C#N)c2)CCCCN(C)C1=O

Compound: O=C1NCCc2ccc(c(Br)c2)Oc2cc(ccc2O)CCNC(=O)/C(=N/O)Cc2cc(Br)c(O)c(c2)Oc2c(Br)cc(cc2Br)C/C1=N\O [BASTADIN 13]
Ratio IC50 [5]: 14
IC50 [6]: 520 nM

Compound: O=C1CCc2cc(Br)c(c(Br)c2)Oc2cc(ccc2O)CCC(=O)NCCc2cc(Br)c(c(Br)c2)Oc2cc(cc(Br)c2O)CCN1
Ratio IC50 [5]: 1.6
IC50 [6]: 4000 nM

IC50 [14]: 5300 nM
Compound: Cc1cc(O)cc2c1Oc1cc(O)cc(C)c1C(=O)O2

IC50 [3]: 5.1 nM
Compound: CCC1(c2cccc(Oc3cc(C(C)(N)c4cncn4C)ccc3C#N)c2)CCCCN(C)C1=O (mixture of isomers)

Compound: Nc1cc2cc(c1O)Oc1c(Br)cc(cc1Br)CCNC(=O)/C(=N/O)Cc1cc(N)c(O)c(c1)Oc1c(Br)cc(cc1Br)C/C(=N/O)C(=O)NCC2
Ratio IC50 [5]: 3.4
IC50 [6]: 960 nM

Compound: O=C1N/C=C/c2ccc(c(Br)c2)Oc2cc(ccc2O)CCNC(=O)/C(=N/O)Cc2cc(Br)c(c(Br)c2)Oc2cc(cc(Br)c2O)C/C1=N\O [BASTADIN 11]
Ratio IC50 [5]: 38
IC50 [6]: 53 nM

IC50 [3]: 15000 nM
Compound: COc1cccc(Oc2cc(Cn3ccnc3)ccc2C#N)c1OC

Compound: COc1ccc(O)c2c1Oc1cccc(c1)CCc1ccc(O)c(c1)Oc1ccc(cc1)CC2
IC50 [11]: 50000 nM
IC50 [12]: 5450 nM
Activity [13]: 51.62%

IC50 [3]: 8 nM
Compound: CCC1(c2cccc(Oc3cc(C(N)c4cncn4C)ccc3C#N)c2)CCCCN(C)C1=O (stereo unspecified)

Compound: N[C@@H]1Cc2cc(Br)c(c(Br)c2)Oc2cc(ccc2O)C[C@H](N)C(=O)NCCc2cc(Br)c(c(Br)c2)Oc2cc(cc(Br)c2O)CCNC1=O
Ratio IC50 [5]: 26.2
IC50 [6]: 610 nM

Compound: O=C1NCCc2cc(Br)c(O)c(c2)Oc2c(Br)cc(cc2Br)CCNC(=O)/C(=N/O)Cc2cc(Br)c(O)c(c2)Oc2c(Br)cc(cc2Br)C/C1=N\O [BASTADIN 6]
Ratio IC50 [5]: 41
IC50 [6]: 52 nM

IC50 [4]: > 50000 nM
IC50 [9]: 1.9 nM
AUC [10]: 21 µM·h
half-life [15]: 19.5 h
Compound: C[C@@H]1OC(C)(C)O[C@H]1C(CS(=O)(=O)c1ccc(Oc2ccc(OC(F)(F)F)cc2)cc1)N(O)C=O (stereo partly specified)

IC50 [4]: > 50000 nM
IC50 [8]: 5.5 nM
IC50 [9]: 1.5 nM
AUC [10]: 2 µM·h
Compound: CC1(C)OC[C@H](CC(CS(=O)(=O)c2ccc(Oc3ccc(OC(F)(F)F)cc3)cc2)N(O)C=O)O1 (stereo partly specified)

Compound: O=C1NCCc2cc(Br)c(O)c(c2)Oc2ccc(cc2Br)CCNC(=O)/C(=N\O)Cc2cc(Br)c(O)c(c2)Oc2c(Br)cc(cc2Br)C/C1=N/O [BASTADIN 5]
Ratio IC50 [5]: 76
IC50 [6]: 62 nM

AUC [10]: 3 µM·h
half-life [15]: 1 h
Compound: O=CN(O)C(CS(=O)(=O)c1ccc(Oc2ccc(OC(F)(F)F)cc2)cc1)[C@H](O)CO (stereo partly specified)

half-life [15]: 1.91 h
Compound: O=CN(O)C(COCCO)CS(=O)(=O)c1ccc(Oc2ccc(OC(F)(F)F)cc2)cc1 (stereo unspecified)

AUC [10]: 53 µM·h
half-life [15]: 16.8 h
Compound: CC1(C)OC[C@H]([C@@H](CS(=O)(=O)c2ccc(Oc3ccc(OC(F)(F)F)cc3)cc2)N(O)C=O)O1

Compound: O=C1NCCc2ccc(c(Br)c2)Oc2cc(cc(Br)c2O)CCNC(=O)/C(=N/O)Cc2cc(Br)c(O)c(c2)Oc2c(Br)cc(cc2Br)C/C1=N\O [BASTADIN 19]
Ratio IC50 [5]: 19
IC50 [6]: 120 nM

IC50 [4]: > 50000 nM
IC50 [8]: 0.53 nM
IC50 [9]: 0.53 nM
AUC [10]: 16 µM·h
Compound: O=CN(O)C(Cc1ccc(C(=O)O)cc1)CS(=O)(=O)c1ccc(Oc2ccc(OC(F)(F)F)cc2)cc1 (stereo unspecified)

Compound: COc1ccc2cc1Oc1ccc(cc1)CCc1ccc(c(O)c1)Oc1cccc(c1)CC2
IC50 [11]: 50000 nM
IC50 [12]: 7980 nM
Activity [13]: 9.4%
